Laboratory results: ChEMBL document CHEMBL4002618, “Anticomplement triterpenoids from the roots of Ilex asprella” (2017)
Activity calls are given as the source filed them. The calls are words filed in the database; no cut-off is given here.

Key:
[1] = system: Erythrocyte; experiment: Anticomplement activity in New Zealand White rabbit erythrocytes assessed as concentration required for 50% hemolytic inhibition by alternative pathway preincubated for 10 mins with normal human serum followed by erythrocyte addition measured after 30 mins by spectrophotometer; assay type: functional
[2] = system: Erythrocyte; experiment: Anticomplement activity in sheep erythrocytes assessed as concentration required for 50% hemolytic inhibition by classic pathway preincubated for 10 mins with guinea pig serum followed by erythrocyte addition measured after 30 mins by spectrophotometer; assay type: functional
[3] = system: Erythrocyte; experiment: Anticomplement activity in sheep erythrocytes assessed as inhibition of hemolysis by classical pathway by measuring hemolysis after 30 mins of compound treatment in normal human serum with C9-depleted sera relative to control; assay type: functional, Ovis aries; set-up: scale not given: the % may be the effect or the level left
[4] = system: Erythrocyte; experiment: Anticomplement activity in sheep erythrocytes assessed as inhibition of hemolysis by classical pathway by measuring hemolysis after 30 mins of compound treatment in normal human serum with C3-depleted sera relative to control; assay type: functional, Ovis aries; set-up: scale not given: the % may be the effect or the level left
[5] = system: Erythrocyte; experiment: Anticomplement activity in sheep erythrocytes assessed as inhibition of hemolysis by classical pathway by measuring hemolysis after 30 mins of compound treatment in normal human serum with C4-depleted sera relative to control; assay type: functional, Ovis aries; set-up: scale not given: the % may be the effect or the level left
[6] = system: Erythrocyte; experiment: Anticomplement activity in sheep erythrocytes assessed as inhibition of hemolysis by classical pathway after 30 mins of compound treatment in normal human serum with C1q-depleted sera; assay type: functional, cell-based; details: Ovis aries
[7] = system: Erythrocyte; experiment: Anticomplement activity in sheep erythrocytes assessed as inhibition of hemolysis by classical pathway after 30 mins of compound treatment in normal human serum with C2-depleted sera; assay type: functional, cell-based; details: Ovis aries
[8] = system: Erythrocyte; experiment: Anticomplement activity in sheep erythrocytes assessed as inhibition of hemolysis by classical pathway after 30 mins of compound treatment in normal human serum with C5-depleted sera; assay type: functional, cell-based; details: Ovis aries

SMILES | Activity ([1]; Oryctolagus cuniculus) | Activity ([2]; Ovis aries) | Activity [1] [mg/mL] | Activity [2] [mg/mL] | further results
C[C@H]1CC[C@]2(C(=O)O[C@@H]3O[C@H](CO)[C@@H](O)[C@H](O)[C@H]3O)CC[C@]3(C)C(=CC[C@@H]4[C@@]5(C)CC[C@H](O[C@@H]6OC[C@H](O)[C@H](O)[C@H]6O)C(C)(C)[C@@H]5CC[C@]43C)[C@@H]2[C@]1(C)O | inactive | inactive | – | – | –
COC(=O)[C@]12CC[C@@H](C)[C@@](C)(O)[C@H]1C1=CC[C@@H]3[C@@]4(C)CC[C@H](O)C(C)(C)[C@@H]4CC[C@@]3(C)[C@]1(COC(=O)/C=C/c1ccc(O)c(OC)c1)CC2 | – | – | 0.319 | 0.131 | –
COC(=O)[C@H]1O[C@@H](O[C@H]2CC[C@@]3(C)[C@@H](CC[C@]4(C)[C@@H]3CC=C3[C@H]5[C@](C(=O)O)(CC[C@@H](C)[C@@]5(C)O)CC[C@]34C)[C@]2(C)CO)[C@H](O)[C@@H](O)[C@@H]1O | inactive | inactive | – | – | –
COC(=O)[C@H]1O[C@@H](O[C@H]2CC[C@]3(C)[C@H]4CC=C5[C@@H]6[C@H](O)C(C)(C)CC[C@]6(C(=O)O)CC[C@@]5(C)[C@]4(C)CC[C@H]3C2(C)C)[C@H](O)[C@@H](O)[C@@H]1O | inactive | inactive | – | – | –
CC1(C)CC[C@]2(C(=O)O)CC[C@]3(C)C(=CC[C@@H]4[C@@]5(C)CC[C@H](O[C@@H]6OC[C@H](O)[C@H](O)[C@H]6O)C(C)(C)[C@@H]5CC[C@]43C)[C@@H]2[C@@H]1O | inactive | inactive | – | – | –
C[C@H]1CC[C@]2(C(=O)O[C@@H]3O[C@H](CO)[C@@H](O)[C@H](O)[C@H]3O)CC[C@]3(C)C(=CC[C@@H]4[C@@]5(C)CC[C@H](O[C@@H]6OC[C@@H](O)[C@H](O)[C@H]6O)C(C)(C)[C@@H]5CC[C@]43C)[C@@H]2[C@]1(C)O | inactive | inactive | – | – | –
CC1=C2[C@H](O)C[C@]3(C)[C@H]([C@@H]4O[C@@H]4[C@]45OC(=O)[C@@]6(CC[C@@H](C)[C@H](C)[C@H]64)CC[C@]53C)[C@@]2(C)C=C(O)C1=O | – | – | 0.774 | 0.505 | –
COC(=O)[C@]12CCC(C)(C)C[C@H]1C1=CC[C@@H]3[C@@]4(C)CC[C@H](O)C(C)(C)[C@@H]4CC[C@@]3(C)[C@]1(COC(=O)/C=C/c1ccc(O)c(O)c1)CC2 | – | – | 0.089 | 0.063 | Activity [3]: <18.3%; Activity [4]: <18.3%; Activity [5]: <18.3%; Activity [6]: inactive; Activity [7]: inactive; Activity [8]: inactive
COC(=O)[C@H]1O[C@@H](O[C@H]2CC[C@]3(C)[C@H]4CC=C5[C@H]6[C@](C(=O)O)(CC[C@@H](C)[C@@]6(C)O)CC[C@@]5(C)[C@]4(C)CC[C@H]3C2(C)C)[C@H](O)[C@@H](O)[C@@H]1O | inactive | inactive | – | – | –
C=C1[C@@H](O)[C@H](O)C[C@]2(C)[C@H]3C=C[C@]45OC(=O)[C@@]6(CC[C@@H](C)[C@H](C)[C@H]64)CC[C@@]5(C)[C@]3(C)CC[C@@H]12 [ILEKUDINOL A] | – | – | 0.658 | 0.248 | –
C=C1[C@@H](O)[C@H](O)C[C@]2(C)[C@H]3CC=C4[C@@H]5[C@@H](C)[C@H](C)CC[C@]5(C(=O)O)CC[C@@]4(C)[C@]3(C)CC[C@@H]12 [ILEKUDINOL B] | – | – | 0.586 | 0.123 | –
C[C@H]1CC[C@]2(C(=O)O)CC[C@]3(C)C(=CC[C@@H]4[C@@]5(C)CC[C@H](O)C(C)(C)[C@@H]5CC[C@]43C)[C@@H]2[C@]1(C)O | – | – | 0.579 | 0.237 | –
C[C@H]1[C@H](C)CC[C@]2(C(=O)O)CC[C@]3(C)C(=CC[C@@H]4[C@@]5(C)C[C@H](O)[C@H](O)[C@@](C)(CO)[C@@H]5CC[C@]43C)[C@H]12 | – | – | 0.212 | 0.197 | –
C=C1[C@@H](O)[C@H](O)C[C@]2(C)[C@H]3[C@@H]4O[C@@H]4[C@]45OC(=O)[C@@]6(CCC(C)(C)C[C@H]64)CC[C@@]5(C)[C@]3(C)CC[C@@H]12 | – | – | 0.781 | 0.357 | –
C[C@H]1[C@H](C)CC[C@]2(C(=O)O)CC[C@]3(C)C(=CC[C@@H]4[C@@]5(C)CC[C@H](O)[C@@](C)(CO)[C@@H]5CC[C@]43C)[C@H]12 | – | – | 0.678 | 0.161 | –
C[C@@H]1CC[C@]2(C(=O)O[C@@H]3O[C@H](CO)[C@@H](O)[C@H](O)[C@H]3O)CC[C@]3(C)C(=CC[C@@H]4[C@@]5(C)CC[C@H](O)C(C)(C)[C@@H]5CC[C@]43C)[C@@H]2[C@]1(C)O | inactive | inactive | – | – | –

SMILES | Activity ([1]; Oryctolagus cuniculus) | Activity ([2]; Ovis aries) | Activity [1] [mg/mL] | Activity [2] [mg/mL] | further results
CC1=C2[C@H](O)C[C@]3(C)[C@H]([C@@H]4O[C@@H]4[C@]45OC(=O)[C@@]6(CCC(C)(C)C[C@H]64)CC[C@]53C)[C@@]2(C)C=C(O)C1=O | – | – | 0.944 | 0.38 | –
C[C@@H]1CC[C@]2(C(=O)O)CC[C@]3(C)C(=CC[C@@H]4[C@@]5(C)CC[C@H](O)C(C)(C)[C@@H]5CC[C@]43C)[C@@H]2[C@]1(C)O [POMOLIC ACID] | – | – | 0.157 | 0.101 | –
C[C@H]1[C@H](C)CC[C@]2(C(=O)O)CC[C@]3(C)C(=CC[C@@H]4[C@@]5(C)CC[C@H](O)C(C)(C)[C@@H]5CC[C@]43C)[C@H]12 [URSOLIC ACID] | – | – | 0.493 | 0.278 | –
C[C@H]1[C@H](C)CC[C@@]23CC[C@]4(C)[C@@](OC2=O)([C@H]13)[C@H]1O[C@H]1[C@@H]1[C@@]2(C)CC(=O)[C@H](O)[C@@H](C)[C@@H]2[C@H](O)C[C@]14C | – | – | 0.734 | 0.592 | –
CC(=O)O[C@H]1CC[C@]2(C)[C@H]3CC=C4[C@@H]5[C@@H](C)[C@H](C)CC[C@]5(CO)CC[C@@]4(C)[C@]3(C)CC[C@H]2C1(C)C | inactive | – | – | 0.46 | –
COC(=O)[C@]12CCC(C)(C)C[C@H]1C1=CC[C@@H]3[C@@]4(C)CC[C@H](O)C(C)(C)[C@@H]4CC[C@@]3(C)[C@]1(COC(=O)/C=C/c1ccc(O)cc1)CC2 | – | – | 0.444 | 0.094 | Activity [3]: <18.3%; Activity [4]: <18.3%; Activity [5]: <18.3%; Activity [6]: inactive; Activity [7]: inactive; Activity [8]: inactive
C[C@@H]1CC[C@]2(C(=O)O)CC[C@]3(C)C(=CC[C@@H]4[C@@]5(C)CC[C@H](O)[C@@](C)(CO)[C@@H]5CC[C@]43C)[C@@H]2[C@]1(C)O [ROTUNDIC ACID] | – | – | 0.341 | 0.19 | –
COC(=O)[C@]12CC[C@@H](C)[C@H](C)[C@H]1C1=CC[C@@H]3[C@@]4(C)CC[C@H](O)C(C)(C)[C@@H]4CC[C@@]3(C)[C@]1(COC(=O)/C=C/c1ccc(O)c(O)c1)CC2 | – | – | 0.08 | 0.058 | Activity [3]: <18.3%; Activity [4]: <18.3%; Activity [5]: <18.3%; Activity [6]: inactive; Activity [7]: inactive; Activity [8]: inactive
COC(=O)[C@H]1O[C@@H](O[C@H]2CC[C@]3(C)[C@H]4CC=C5[C@H]6[C@](C(=O)O)(CC[C@H](C)[C@@]6(C)O)CC[C@@]5(C)[C@]4(C)CC[C@H]3C2(C)C)[C@H](O)[C@@H](O)[C@@H]1O | inactive | inactive | – | – | –
C[C@@H]1CC[C@]2(C(=O)O)CC[C@]3(C)C(=CC[C@@H]4[C@@]5(C)CC[C@H](O[C@@H]6OC[C@H](O)[C@H](O)[C@H]6O)C(C)(C)[C@@H]5CC[C@]43C)[C@@H]2[C@]1(C)O | inactive | inactive | – | – | –
C=C1[C@@H](O)[C@H](O)C[C@]2(C)[C@H]3[C@@H]4O[C@@H]4[C@]45OC(=O)[C@@]6(CC[C@@H](C)[C@H](C)[C@H]64)CC[C@@]5(C)[C@]3(C)CC[C@@H]12 [ULMOIDOL] | – | – | 0.794 | 0.429 | –
C[C@@H]1CC[C@]2(C(=O)O[C@@H]3O[C@H](CO)[C@@H](O)[C@H](O)[C@H]3O)CC[C@]3(C)C(=CC[C@@H]4[C@@]5(C)CC[C@H](O[C@@H]6OC[C@@H](O)[C@H](O)[C@H]6O)C(C)(C)[C@@H]5CC[C@]43C)[C@@H]2[C@]1(C)O | inactive | inactive | – | – | –
CC(=O)O[C@H]1[C@H](O[C@H]2CC[C@]3(C)[C@H]4CC=C5[C@H]6[C@](C(=O)O[C@@H]7O[C@H](CO)[C@@H](O)[C@H](O)[C@H]7O)(CC[C@@H](C)[C@@]6(C)O)CC[C@@]5(C)[C@]4(C)CC[C@H]3C2(C)C)OC[C@H](O)[C@@H]1O | inactive | inactive | – | – | –
C=C1CC[C@@]23CC[C@]4(C)[C@@](OC2=O)([C@@H]3[C@H]1C)[C@H]1O[C@H]1[C@@H]1[C@@]2(C)C=C(O)C(=O)C(C)=C2[C@H](O)C[C@]14C | – | – | 0.656 | 0.236 | –
C[C@@H]1CC[C@]2(C(=O)O[C@@H]3O[C@H](CO)[C@@H](O)[C@H](O)[C@H]3O)CC[C@]3(C)C(=CC[C@@H]4[C@@]5(C)CC[C@H](O[C@@H]6OC[C@H](O)[C@H](O)[C@H]6O)C(C)(C)[C@@H]5CC[C@]43C)[C@@H]2[C@]1(C)O | inactive | inactive | – | – | –
